Reference: patent US10842807B2, “Methods of treating neurodegenerative disorders comprising DNA methyltransferase inhibitors” (Washington University, priority 2016, dated 2020)

What was measured:
Type in all cases: cell-based, mouse
[1] = test system: Htt-72Q-expressing primary cortical neurons; experiment: MTS cell viability assay in Htt-expressing primary cortical neurons; details: for viability of Htt-72Q-expressing neurons (MTS assay): MTS at DIV 14; for viability of mutant Htt-expressing neurons (MTS assay), validation of screen hits: 0.02, 0.2, 2 μM vs Htt-72Q (0 μM)
Protocol: Mouse primary cortical and striatal neurons from embryonic day (E) 15.5 Swiss Webster mouse fetuses (Taconic) were first plated in the minimal essential medium (MEM) containing 10% FBS, 0.45% glucose, 1 mM sodium pyruvate, 2 mM glutamine, 20 U/ml penicillin and 20 μg/ml streptomycin, for 3 h and then maintained in serum-free Neurobasal medium (Life Technologies) containing NeuroCult™ SM1 neuronal supplement ([…] Technologies), 0.5 mM glutamine and 25 μM glutamate for the first 3 d in a humidified incubator (37° C. in 5% CO2). Half of the medium was replaced with Neurobasal medium with SM1 and 0.5 mM glutamine every 3 days. Primary cortical neurons plated on 96-well flat clear bottom black plates (Corning #3904) at 4×10^4 cells/well were infected with Htt exon1 expression lentivirus (Htt-25Q or Htt-72Q) or control empty vector lentivirus at 5 days in vitro (DIV 5). Primary striatal neurons plated on 96-well plates at 1×10^5 cells/well were infected with Htt exon1 expression lentivirus at DIV 4. Viral copy number was adjusted for transduction of neurons on the basis of titer measured using the Lenti-X qRT-PCR titration kit (Clontech), and equal numbers of viral particles of Htt-25Q and Htt-72Q expressing lentiviruses were used for transduction. For the experiments to test effects of DNMT inhibitors, neurons were treated with inhibitors six hours after Htt lentiviral infection. One half of the media was changed every 3 days with media containing new drug. In knockdown experiments in Htt-expressing neurons, primary cortical neurons were cotransduced with Htt-expressing lentivirus and Dnmt shRNA or control shRNA lentivirus at DIV 5. pLKO.1-TRC1-luciferase (Luci) and pLKO.1-TRC2-LacZ were used as control for RNAi with pLKO.1-TRC1-Dnmt3a and pLKO.1-TRC2-Dnmt1, respectively. Lentiviral particles were prepared by transfecting 293LE cells with the lentiviral plasmid of interest along with packaging plasmid psPAX2 and envelope plasmid pCMV-SVG as described previously^86. Four days after transfection, viruses in the conditioned media were collected and purified using Lenti-X Concentrator (Clontech). Primary cortical neurons from BACHD mouse embryos (E15.5) were individually plated into separate wells and treated at DIV 4 with decitabine or vehicle for 3.5 days.

[2] = test system: Htt-72Q-expressing primary cortical neurons; experiment: Neurofilament (NF) immunofluorescence, neurite degeneration in cortical neurons; details: fixed at DIV 14; vs. Htt-72Q (0 μM)
Protocol: (§1) Mouse primary cortical and striatal neurons from embryonic day (E) 15.5 Swiss Webster mouse fetuses (Taconic) were first plated in the minimal essential medium (MEM) containing 10% FBS, 0.45% glucose, 1 mM sodium pyruvate, 2 mM glutamine, 20 U/ml penicillin and 20 μg/ml streptomycin, for 3 h and then maintained in serum-free Neurobasal medium (Life Technologies) containing NeuroCult™ SM1 neuronal supplement ([…] Technologies), 0.5 mM glutamine and 25 μM glutamate for the first 3 d in a humidified incubator (37° C. in 5% CO2). Half of the medium was replaced with Neurobasal medium with SM1 and 0.5 mM glutamine every 3 days. Primary cortical neurons plated on 96-well flat clear bottom black plates (Corning #3904) at 4×10^4 cells/well were infected with Htt exon1 expression lentivirus (Htt-25Q or Htt-72Q) or control empty vector lentivirus at 5 days in vitro (DIV 5). Primary striatal neurons plated on 96-well plates at 1×10^5 cells/well were infected with Htt exon1 expression lentivirus at DIV 4. Viral copy number was adjusted for transduction of neurons on the basis of titer measured using the Lenti-X qRT-PCR titration kit (Clontech), and equal numbers of viral particles of Htt-25Q and Htt-72Q expressing lentiviruses were used for transduction. […]
(§2) For the measurement of neurofilament (NF) immunofluorescence intensity, cortical and striatal neurons cultured in a 96-well plate were fixed in 4% paraformaldehyde (PFA) in PBS for 20 min nine and seven days after Htt lentiviral infection, respectively, permeabilized with 0.1% Triton X-100 in PBS for 15 min at room temperature, and subjected to indirect immunofluorescence with anti-NF (2H3) primary antibody and Alexa Fluor 568-conjugated goat anti-mouse IgG secondary antibody (Life Technologies). […] Following image background subtraction, the NF immunofluorescence intensity was quantified using an ImageJ-based macro. Image capture and quantification of Htt (EM48) immunofluorescence intensity were performed as described for those of NF. […] About 300 nuclei from three random fields in a well were counted. […]

[3] = test system: Htt-72Q-expressing primary striatal neurons; experiment: Neurofilament (NF) immunofluorescence, neurite degeneration in striatal neurons; details: DIV 4 striatal neurons transduced, fixed seven days later; vs. Htt-72Q (0 μM)
Protocol: as §1, §2

[4] = test system: Htt-72Q-expressing primary cortical neurons; experiment: Epigenetic drug library screen, resazurin (Alamar Blue) assay; details: 0.02, 0.2, 2 μM added at DIV 6, resazurin at DIV 14; hits validated by MTS
Protocol: As epigenetic gene regulation is a cell-type specific mechanism, we used a physiologically relevant, post-mitotic cortical neuron culture system for this screen. In this system, lentivirus-mediated expression of the exon 1-encoded N-terminal fragment of mutant Htt (Htt-72Q with a 72 glutamine repeat), but not wild-type (WT) Htt (Htt-25Q), induces neurotoxicity^38. […] In the drug screen, the viability of Htt-expressing cortical neurons was determined by the resazurin (Alamar Blue) assay, a quantitative measurement of mitochondrial metabolic activity, which correlates with cell viability.
Epigenetic drug screen was performed using a primary cortical neuron model of HD with a drug library composed of 84 compounds (Table 1), among which 80 drugs are purchased from Cayman Chemical (Epigenetic Screening Library Item No 11076) and four drugs, SGC0946, EPZ5676, EPZ6438, and GSK126, were obtained from Xcessbio Biosciences Inc. Mouse primary cortical neurons were plated on 96-well flat clear bottom black plates (Corning #3904). WT or mutant Htt exon1 fragment (Htt-25Q or Htt-72Q)-expressing lentiviruses are infected at DIV 5 as described above. The 84 compounds were added to the media at DIV 6 one day after Htt lentiviral infection with three different doses (0.02, 0.2, 2 μM) for each compound at triplicates. DMSO was used as control. Media containing compounds or DMSO were changed every three days to maintain the compounds' activity. At DIV 14, the viability of neurons was determined by resazurin (Alamar blue) assay, a quantitative measurement of mitochondrial metabolic activity. The screen was fully automated and performed in the High-Throughput Screening Center in Washington University School of Medicine. Any possible plate effects were determined using control plates treated with DMSO and used for normalization. Screen hits were validated by MTS assay.

Row | Molecule | viability of mutant Htt-expressing neurons (MTS assay), validation of screen hits [1] | outcome in epigenetic drug screen (84 compounds) [4] | further results
1 | Nc1ncn([C@@H]2O[C@H](CO)[C@@H](O)[C@H]2O)c(=O)n1 [5-azacytidine] |  |  | viability of Htt-72Q-expressing neurons (MTS assay) ([1]; DIV 5 cortical neurons transduced with Htt lentivirus, treated with drug or DMSO (=0 μM), vs. Htt-72Q (0 μM)): no significant difference in survival; Htt-72Q-induced neurite degeneration (NF immunofluorescence intensity), cortical neurons [2]: no significant difference in NF immunofluorescence intensity; mutant Htt-induced neurite degeneration (NF immunofluorescence intensity), striatal neurons [3]: no significant difference in NF immunofluorescence intensity
2 | CNCc1ccc(-c2[nH]c3cc(F)cc4c3c2CCNC4=O)cc1 [AG-014699] | no significant difference in survival | another screen hit | 
3 | CC(=O)Nc1ccc(NC(=S)NC(=O)c2ccc(C(C)(C)C)cc2)cc1 [Tenovin-1] | did not significantly increase the viability of mutant Htt-expressing neurons | one of the top three positive compounds | 
4 | BDNF: recombinant BDNF protein added in the culture medium (protein, UniProt P23560 19-247, looked up) Neurotrophic factor BDNF …: APMKEANIRGQGGLAYPGVRTHGTLESVNGPKAGSRGLTSLADTFEHVIEELLDEDQKVRPNEENNKDADLYTSRVMLSSQVPLEPPLLFLLEEYKNYLDAANMSMRVRRHSDPARRGELSVCDSISEWVTAADKKTAVDMSGGTVTVLEKVPVSKGQLKQYFYETKCNPMGYTKEGCRGIDKRHWNSQCRTTQSYVRALTMDSKKRIGWRFIRIDTSCVCTLTIKRGR |  |  | viability of Htt-72Q-expressing neurons (MTS assay) ([1]; cultured with recombinant BDNF 50 ng/ml, vs. Htt-72Q with vehicle): increased the viability of Htt-72Q-expressing neurons
